{
  "source": "patent US5234815A",
  "about": "“Monoclonal antibodies against cytosolic thyroid hormone binding protein” (The United States of America as represented by the …, priority 1991, dated 1993)",
  "key": {"purified p58": {"biological_target": "T1, purified p58 (Homo sapiens, UniProt P14618)", "T1 construct": "p 58 was purified from A431 cells; endogenous in cells; host or cells: A431 cells (purified native protein)", "T1 sequence (P14618 whole entry)": "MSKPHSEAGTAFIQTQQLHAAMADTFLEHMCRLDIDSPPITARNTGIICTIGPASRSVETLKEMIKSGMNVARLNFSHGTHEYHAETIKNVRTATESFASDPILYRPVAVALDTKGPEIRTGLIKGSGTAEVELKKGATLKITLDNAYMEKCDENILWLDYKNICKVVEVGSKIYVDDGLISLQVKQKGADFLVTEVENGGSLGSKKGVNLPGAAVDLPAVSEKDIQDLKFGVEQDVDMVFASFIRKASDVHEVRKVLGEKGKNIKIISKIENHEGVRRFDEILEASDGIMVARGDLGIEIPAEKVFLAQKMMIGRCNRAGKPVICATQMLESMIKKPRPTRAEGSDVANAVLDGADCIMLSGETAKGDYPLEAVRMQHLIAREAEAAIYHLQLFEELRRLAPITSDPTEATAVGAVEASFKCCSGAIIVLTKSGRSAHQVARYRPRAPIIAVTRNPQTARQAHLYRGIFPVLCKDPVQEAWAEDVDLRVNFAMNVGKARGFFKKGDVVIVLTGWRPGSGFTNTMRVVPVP", "assay": "Binding of [125I]T3 and analogs to purified p58", "conditions": "competition with [125I]T3, equilibrium conditions", "description": "Binding data were analyzed by least squares analysis as described in Horiuchi et al, supra."}, "p58": {"biological_target": "T2, p58 (Homo sapiens, UniProt P14618)", "T2 construct": "endogenous in cells; host or cells: A431 cells", "T2 sequence (P14618 2-531 limits assumed)": "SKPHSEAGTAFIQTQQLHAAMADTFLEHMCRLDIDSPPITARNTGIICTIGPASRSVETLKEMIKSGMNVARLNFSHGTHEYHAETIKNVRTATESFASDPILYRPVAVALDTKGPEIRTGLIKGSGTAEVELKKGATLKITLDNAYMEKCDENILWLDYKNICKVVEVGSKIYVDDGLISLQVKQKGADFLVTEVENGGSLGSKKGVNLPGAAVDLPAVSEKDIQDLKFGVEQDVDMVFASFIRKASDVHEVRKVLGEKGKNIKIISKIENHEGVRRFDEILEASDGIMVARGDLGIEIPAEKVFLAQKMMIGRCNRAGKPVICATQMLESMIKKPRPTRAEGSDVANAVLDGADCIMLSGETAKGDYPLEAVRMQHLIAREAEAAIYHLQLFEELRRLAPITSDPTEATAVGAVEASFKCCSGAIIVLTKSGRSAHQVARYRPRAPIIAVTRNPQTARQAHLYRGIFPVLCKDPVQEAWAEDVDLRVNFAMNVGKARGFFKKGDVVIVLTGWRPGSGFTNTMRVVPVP", "assay": "T3 binding in subcellular fractions of A431 cells", "conditions": "for Specific [125I]T3 bound: 50 ug protein", "description": "Overnight cultures of A431 cells (1×10^7 cells/150 mm dish) were washed with 30 ml of PBS (Ca^++ and Mg^++ free). Cells were harvested with a rubber policeman and pelleted. The cell pellet was resuspended in 2 ml of homogenization buffer (0.25M sucrose, 20 mM Tris, 1.1 mM MgCl2, pH 7.85) and homogenized in a tight dounce homogenizer. After centrifugation at 800 xg for 10 min, the supernatant was further centrifuged at 110,000 xg for 90 min at 4° C. (supernatant A). The pellet was resuspended by pipetting in 1 ml of the homogenizing buffer. The suspension was centrifuged at 110,000 xg for 90 min (supernatant B). The pellet was extracted with 1 ml of 3 mM CHAPS by stirring for 30 min. The suspension was centrifuged at 110,000 xg for 90 min (supernatant C)."}},
  "data": [
    {"smiles": "N[C@@H](Cc1cc(I)c(Oc2cc(I)c(O)c(I)c2)c(I)c1)C(=O)O", "note": "[T4]", "values": [
      {"measurement": "affinity for p58 compared with T3", "setting": "purified p58", "value": "affinity similar to that of T3"}
    ]},
    {"smiles": "N[C@@H](Cc1cc(I)c(Oc2ccc(O)c(I)c2)c(I)c1)C(=O)O", "note": "[[^125 I]T3]", "values": [
      {"measurement": "Specific [125I]T3 bound, % of total", "setting": "p58; 110,000 xg Pellet", "value": "6 % of total"},
      {"measurement": "Specific [125I]T3 bound", "setting": "p58; 110,000 xg Pellet", "value": "0.17 dpm(× 10^-4)"},
      {"measurement": "Specific [125I]T3 bound, % of total", "setting": "p58; 110,000 xg Supernatant", "value": "94 % of total"},
      {"measurement": "Specific [125I]T3 bound", "setting": "p58; 110,000 xg Supernatant", "value": "2.5 dpm(× 10^-4)"}
    ]},
    {"smiles": "N[C@@H](Cc1ccc(Oc2cc(I)c(O)c(I)c2)c(I)c1)C(=O)O", "note": "[reverse-T3]", "values": [
      {"measurement": "affinity for p58, fold less than that of T3", "setting": "purified p58", "value": 10, "unit": "fold"}
    ]}
  ]
}
